Measured values from patent US20100029600A1, “DIHYDRO-TRITERPENES IN THE TREATMENT OF VIRAL INFECTIONS, CARDIOVASCULAR DISEASE, INFLAMMATION, HYPERSENSITIVITY OR PAIN” (priority 2001, published 2010).

How the values were obtained:
[1] = test system: TPA induced ear inflammation; experiment: TPA (phorbolester) induced ear oedema test in the mouse, topical; assay type: in vivo; details: 0.02 mg per application topical; 3 h after TPA; p<0.05
[2] = test system: carrageenin-induced paw oedema; experiment: Carrageenin-induced paw oedema test in the rat, oral; assay type: in vivo; details: 150 mg/kg oral, p<0.05
Description: Carrageenin, the phlogistic agent of choice for testing antiinflammatory drugs, is a mucopolysaccharide derived from Irish sea moss, Chondrus. Ibuprofen is used as a positive control.
The test article is the composition according to the invention described in example 1 further modified so that the dihydro-triterpenes are predominantly in the form of fatty acid esters (Compound 2). Ibuprofen is obtained from Astion A/S, Denmark. The test article is dissolved in peanut oil, which is used as vehicle.
The study is performed in male SPF Sprague Dawley rats of the stock Mol:SPRD from M & B A/S, Tornbjergvej 40, DK-4623 Lille Skensved. At start of the acclimatisation period the rats are in the weight range of 80-100 g.
The test articles or vehicle are administered orally by gavage in volumes of 20 ml per kg body weight, 0-5 minutes before injection of carrageenin into the foot.
Carrageenin (from Sigma) is prepared as a 1% suspension in sterile 0.9% NaCl-solution. A volume of 0.1 ml is injected through a 25-gauge needle into the plantar tissue of the right hind paw of the rats within 5 minutes after treatment with the test articles.
Immediately before the dosing and carrageenin injection and three and five hours later the foot volume is measured using a plethysmometer LE 7500 from Letica Scientific Instruments, Spain.

| SMILES | inhibition of ear swelling [1] | inhibition of paw oedema ([2]; after five hours) | inhibition of paw oedema ([2]; after three hours) |
| --- | --- | --- | --- |
| CCCC(=O)O[C@]1(C(=O)CO)CC[C@H]2[C@@H]3CCC4=CC(=O)CC[C@]4(C)[C@H]3[C@@H](O)C[C@@]21C [Hydrocortisone 17-butyrate, hydrocortisone 17-butyrate] | 90% |  |  |
| CC(C)Cc1ccc(C(C)C(=O)O)cc1 (stereo not drawn) [ibuprofen, Ibuprofen] |  | 88% | 81% |
